US20250195521A1 (Revolution Medicines, Inc., priority 2020, published 2025)
Where two headings read alike, the source gives them in different places.

Key:
[1] = system: Capan-1 cells (K-Ras G12V); test: CellTiter-Glo cell viability, Capan-1; assay type: cell-based, human; settings: Homo sapiens, CAPAN-1, 120 h, read-out: Capan-1 Cell Viability IC50
In short: (§1)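 Compounds were dispensed directly onto seeded cells and incubated until day 5, then plates were equilibrated at room temperature for about 30 min before CellTiter-Glo luminescence readout. Signals were normalized as (sample/average DMSO)×100 and fitted with a four-parameter logistic model.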

KRAS WT = KRAS WT (Homo sapiens (Human), UniProt P01116+P62937); test: Ras-Raf disruption/FRET/MOA assay (BRAF RBD, Cyclophilin A); assay type: biochemical; settings: read-out: KRAS WT FRET data IC50
Sequence of KRAS WT (P01116 other isoform, or with tags, fused parts or gaps): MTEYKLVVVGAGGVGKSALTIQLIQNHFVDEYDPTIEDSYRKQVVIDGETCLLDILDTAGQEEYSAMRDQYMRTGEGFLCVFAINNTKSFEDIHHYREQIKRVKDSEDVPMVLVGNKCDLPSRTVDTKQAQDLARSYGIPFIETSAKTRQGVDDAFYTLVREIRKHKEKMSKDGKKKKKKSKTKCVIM
Sequence of KRAS WT (P62937 whole entry): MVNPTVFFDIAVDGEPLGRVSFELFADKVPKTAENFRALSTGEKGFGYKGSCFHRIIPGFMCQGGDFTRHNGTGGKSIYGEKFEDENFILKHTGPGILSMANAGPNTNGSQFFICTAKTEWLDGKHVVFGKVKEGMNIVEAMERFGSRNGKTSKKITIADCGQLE
In short: (§2)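 First, 25 μM Cyclophilin A, 12.5 nM His6-Ras-GMPPNP and 50 nM GST-BRAF RBD are mixed with diluted compound at pH 7.3. Next, 3 h at 25° C. Then 10 nM anti-His Eu-W1024 plus 50 nM anti-GST allophycocyanin for 1.5 h before TR-FRET reading.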

KRAS G12S = KRAS G12S (Homo sapiens (Human), UniProt P01116+P62937, G12S); test: as above; assay type: biochemical; settings: read-out: KRAS G12S FRET IC50
Sequence of KRAS G12S (P01116 other isoform, or with tags, fused parts or gaps G12S): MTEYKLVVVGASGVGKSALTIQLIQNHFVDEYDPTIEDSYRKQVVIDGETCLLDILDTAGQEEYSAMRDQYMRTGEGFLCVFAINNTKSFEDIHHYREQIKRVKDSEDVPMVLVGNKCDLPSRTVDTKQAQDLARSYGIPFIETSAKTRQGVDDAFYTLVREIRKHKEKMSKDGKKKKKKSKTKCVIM
Sequence of KRAS G12S (P62937 whole entry): as the sequence (P62937 whole entry) above
In short: as §2

KRAS G12D = KRAS G12D (Homo sapiens (Human), UniProt P01116+P62937, G12D); test: as above; assay type: biochemical; settings: read-out: KRAS G12D FRET IC50
Sequence of KRAS G12D (P01116 other isoform, or with tags, fused parts or gaps G12D): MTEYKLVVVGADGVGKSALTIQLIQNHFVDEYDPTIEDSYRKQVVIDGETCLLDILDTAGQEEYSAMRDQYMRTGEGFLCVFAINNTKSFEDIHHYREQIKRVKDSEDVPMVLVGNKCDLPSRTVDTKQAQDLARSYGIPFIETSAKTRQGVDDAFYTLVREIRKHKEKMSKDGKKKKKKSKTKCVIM
Sequence of KRAS G12D (P62937 whole entry): as the sequence (P62937 whole entry) above
In short: as §2

KRAS G13C = KRAS G13C (Homo sapiens (Human), UniProt P01116+P62937, G13C); test: as above; assay type: biochemical; settings: read-out: KRAS G13C FRET IC50
Sequence of KRAS G13C (P01116 other isoform, or with tags, fused parts or gaps G13C): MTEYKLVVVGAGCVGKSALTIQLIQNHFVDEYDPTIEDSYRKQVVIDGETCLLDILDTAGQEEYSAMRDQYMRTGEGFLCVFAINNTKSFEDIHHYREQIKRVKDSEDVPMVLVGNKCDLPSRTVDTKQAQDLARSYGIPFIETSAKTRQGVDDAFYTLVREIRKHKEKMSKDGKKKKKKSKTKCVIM
Sequence of KRAS G13C (P62937 whole entry): as the sequence (P62937 whole entry) above
In short: as §2

KRAS G12V = KRAS G12V (Homo sapiens (Human), UniProt P01116+P62937, G12V); test: as above; assay type: biochemical; settings: read-out: KRAS G12V FRET IC50
Sequence of KRAS G12V (P01116 other isoform, or with tags, fused parts or gaps G12V): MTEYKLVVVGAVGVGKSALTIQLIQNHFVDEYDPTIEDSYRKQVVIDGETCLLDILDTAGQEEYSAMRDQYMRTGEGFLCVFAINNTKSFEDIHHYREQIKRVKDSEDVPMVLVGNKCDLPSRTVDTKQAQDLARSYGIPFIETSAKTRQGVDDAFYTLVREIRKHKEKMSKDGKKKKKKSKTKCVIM
Sequence of KRAS G12V (P62937 whole entry): as the sequence (P62937 whole entry) above
In short: as §2

NRAS Q61K = NRAS Q61K (Homo sapiens (Human), UniProt P01111+P62937, Q61K); test: as above; assay type: biochemical
Sequence of NRAS Q61K (P01111 whole entry Q61K): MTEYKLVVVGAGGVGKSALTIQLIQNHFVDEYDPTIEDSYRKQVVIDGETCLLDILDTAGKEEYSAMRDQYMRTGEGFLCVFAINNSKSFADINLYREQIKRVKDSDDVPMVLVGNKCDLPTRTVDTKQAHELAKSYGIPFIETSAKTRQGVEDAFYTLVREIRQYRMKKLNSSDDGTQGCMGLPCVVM
Sequence of NRAS Q61K (P62937 whole entry): as the sequence (P62937 whole entry) above
In short: (§3)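 TR-FRET readout: anti-His Eu-W1024 (10 nM) and anti-GST allophycocyanin (50 nM) added after 3 h, 25° C compound incubation, then 1.5 h more. Decrease in FRET ratio versus DMSO wells marks Ras:RAF disruption; IC50 reported.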

KRAS G13D = KRAS G13D (Homo sapiens (Human), UniProt P01116+P62937, G13D); test: as above; assay type: biochemical; settings: read-out: KRAS G13D FRET data IC50
Sequence of KRAS G13D (P01116 other isoform, or with tags, fused parts or gaps G13D): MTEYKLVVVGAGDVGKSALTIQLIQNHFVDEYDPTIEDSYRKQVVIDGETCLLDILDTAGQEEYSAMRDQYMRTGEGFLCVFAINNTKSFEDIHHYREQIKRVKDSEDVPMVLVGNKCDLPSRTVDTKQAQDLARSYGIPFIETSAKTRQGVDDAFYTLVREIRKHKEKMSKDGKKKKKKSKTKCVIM
Sequence of KRAS G13D (P62937 whole entry): as the sequence (P62937 whole entry) above
In short: as §2

NRAS Q61R = NRAS Q61R (Homo sapiens (Human), UniProt P01111+P62937, Q61R); test: as above; assay type: biochemical
Sequence of NRAS Q61R (P01111 whole entry Q61R): as the sequence (P01111 whole entry Q61K) above, with K61R counted along it
Sequence of NRAS Q61R (P62937 whole entry): as the sequence (P62937 whole entry) above
In short: as §3

NRAS WT = NRAS WT (Homo sapiens (Human), UniProt P01111+P62937); test: as above; assay type: biochemical
Sequence of NRAS WT (P01111 whole entry): as the sequence (P01111 whole entry Q61K) above, with K61Q counted along it
Sequence of NRAS WT (P62937 whole entry): as the sequence (P62937 whole entry) above
In short: as §3

KRAS G12C = KRAS G12C (Homo sapiens (Human), UniProt P01116+P62937, G12C); test: as above; assay type: biochemical; settings: read-out: KRAS G12C FRET IC50
Sequence of KRAS G12C (P01116-2 other isoform, or with tags, fused parts or gaps G12C): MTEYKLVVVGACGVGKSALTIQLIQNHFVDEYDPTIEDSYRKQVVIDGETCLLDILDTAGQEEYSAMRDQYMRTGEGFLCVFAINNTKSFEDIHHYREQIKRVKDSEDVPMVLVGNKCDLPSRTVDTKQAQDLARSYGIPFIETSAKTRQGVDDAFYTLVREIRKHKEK
Sequence of KRAS G12C (P62937 whole entry): as the sequence (P62937 whole entry) above
In short: as §2

NRAS G12C = NRAS G12C (Homo sapiens (Human), UniProt P01111+P62937, G12C); test: as above; assay type: biochemical; settings: read-out: NRAS G12C FRET data IC50
Sequence of NRAS G12C (P01111 whole entry G12C): as the sequence (P01111 whole entry Q61K) above, with G12C, K61Q counted along it
Sequence of NRAS G12C (P62937 whole entry): as the sequence (P62937 whole entry) above
In short: as §3

KRAS Q61H = KRAS Q61H (Homo sapiens (Human), UniProt P01116+P62937, Q61H); test: as above; assay type: biochemical
Sequence of KRAS Q61H (P01116 other isoform, or with tags, fused parts or gaps Q61H): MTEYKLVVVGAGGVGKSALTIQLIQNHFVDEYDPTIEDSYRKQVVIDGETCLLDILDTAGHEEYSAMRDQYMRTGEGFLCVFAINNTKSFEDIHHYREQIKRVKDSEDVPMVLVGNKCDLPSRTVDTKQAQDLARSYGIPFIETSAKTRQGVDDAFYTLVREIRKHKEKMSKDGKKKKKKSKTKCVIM
Sequence of KRAS Q61H (P62937 whole entry): as the sequence (P62937 whole entry) above
In short: as §2

[2] = system: NCI-H358 cells (K-Ras G12C); test: CellTiter-Glo cell viability, NCI-H358; assay type: cell-based, human; settings: Homo sapiens, NCI-H358, 120 h, read-out: H358 Cell Viability IC50
In short: as §1

Compound | IC50 ([1]; K-Ras G12V, 5-day treatment) | IC50 (KRAS WT) | IC50 (KRAS G12S) | IC50 (KRAS G12D) | IC50 (KRAS G13C) | IC50 (KRAS G12V) | IC50 (NRAS Q61K) | IC50 (KRAS G13D) | IC50 (NRAS Q61R) | IC50 (NRAS WT) | IC50 (KRAS G12C) | IC50 (NRAS G12C) | IC50 (KRAS Q61H) | IC50 ([2]; K-Ras G12C, 5-day treatment) | IC50 [1] | IC50 [2]
CCn1c(-c2cccnc2[C@H](C)OC)c2c3cc(ccc31)-c1csc(n1)C[C@H](NC(=O)[C@H](C(C)C)N(C)C(=O)N1CC[C@@]3(CCNC3=O)C1)C(=O)N1CCC[C@H](N1)C(=O)OCC(C)(C)C2 [Compound A480] | 100 to 1000 nM | 100 to 1000 nM | 100 to 1000 nM | 1000 to 10000 nM | 100 to 1000 nM | 100 to 1000 nM | 100 to 1000 nM | 100 to 1000 nM | 100 to 1000 nM | 100 to 1000 nM | 100 to 1000 nM | 100 to 1000 nM | 10 to 100 nM | 100 to 1000 nM |  | 
CCn1c(-c2cccnc2[C@H](C)OC)c2c3cc(ccc31)-c1csc(n1)C[C@H](NC(=O)[C@H](C(C)C)N(C)C(=O)N1CC(O)(COC)C1)C(=O)N1CCC[C@H](N1)C(=O)OCC(C)(C)C2 [Compound A553] | 100 to 1000 nM | 100 to 1000 nM | 1000 to 10000 nM | 1000 to 10000 nM | 100 to 1000 nM | 100 to 1000 nM | 100 to 1000 nM | 1000 to 10000 nM | 100 to 1000 nM | 100 to 1000 nM | 100 to 1000 nM | 100 to 1000 nM | 100 to 1000 nM | 10 to 100 nM |  | 
CCn1c(-c2cccnc2[C@H](C)OC)c2c3cc(ccc31)-c1csc(n1)C[C@H](NC(=O)[C@H](C(C)C)N(C)C(=O)[C@@H]1[C@@H]3CN(C)C[C@@H]31)C(=O)N1CCC[C@H](N1)C(=O)OCC(C)(C)C2 [Compound A447] | 100 to 1000 nM | 100 to 1000 nM | 100 to 1000 nM | 100 to 1000 nM | 100 to 1000 nM | 1000 to 10000 nM | 100 to 1000 nM | 100 to 1000 nM | 1000 to 10000 nM | 100 to 1000 nM | 100 to 1000 nM | 100 to 1000 nM | 100 to 1000 nM | 100 to 1000 nM |  | 
CCn1c(-c2cccnc2[C@H](C)OC)c2c3cc(ccc31)-c1csc(n1)C[C@H](NC(=O)[C@H](C(C)C)N(C)C(=O)N(C)C1CN(C)C1)C(=O)N1CCC[C@H](N1)C(=O)OCC(C)(C)C2 [Compound A611] | 100 to 1000 nM | 100 to 1000 nM | 100 to 1000 nM | 100 to 1000 nM | 100 to 1000 nM | 1000 to 10000 nM | 100 to 1000 nM | 100 to 1000 nM | 100 to 1000 nM | 100 to 1000 nM | 100 to 1000 nM | 100 to 1000 nM | 100 to 1000 nM | 100 to 1000 nM |  | 
CCn1c(-c2cccnc2[C@H](C)OC)c2c3cc(ccc31)-c1csc(n1)C[C@H](NC(=O)[C@H](C(C)C)N(C)C(=O)N1CCCC3(CN(C)C3)C1)C(=O)N1CCC[C@H](N1)C(=O)OCC(C)(C)C2 [Compound A589] | 100 to 1000 nM | 100 to 1000 nM | 100 to 1000 nM | 100 to 1000 nM | 100 to 1000 nM | 100 to 1000 nM | 100 to 1000 nM | 100 to 1000 nM | 100 to 1000 nM | 100 to 1000 nM | 100 to 1000 nM | 100 to 1000 nM | 10 to 100 nM | 10 to 100 nM |  | 
CCn1c(-c2cccnc2[C@H](C)OC)c2c3cc(ccc31)-c1cc(cc(C(F)F)c1)C[C@H](NC(=O)[C@H](C(C)C)N(C)C(=O)[C@@H]1OCC[C@@H]1c1ccccc1)C(=O)N1CCC[C@H](N1)C(=O)OCC(C)(C)C2 [Compound A592] |  | 1000 to 10000 nM | 1000 to 10000 nM | 1000 to 10000 nM | 100 to 1000 nM | 1000 to 10000 nM | 100 to 1000 nM | 1000 to 10000 nM | 1000 to 10000 nM | 1000 to 10000 nM | 100 to 1000 nM | 100 to 1000 nM | 100 to 1000 nM |  | 1000 to 10000 nM | 100 to 1000 nM
CCn1c(-c2cccnc2[C@H](C)OC)c2c3cc(ccc31)-c1csc(n1)C[C@H](NC(=O)[C@H](C(C)C)N(C)C(=O)N(C)[C@@H]1CCN(C)C1)C(=O)N1CCC[C@H](N1)C(=O)OCC(C)(C)C2 [Compound A564] | 100 to 1000 nM | 100 to 1000 nM | 100 to 1000 nM | 100 to 1000 nM | 100 to 1000 nM | 100 to 1000 nM | 100 to 1000 nM | 100 to 1000 nM | 100 to 1000 nM | 100 to 1000 nM | 100 to 1000 nM | 100 to 1000 nM | 10 to 100 nM | 10 to 100 nM |  | 
CCn1c(-c2cccnc2[C@H](C)OC)c2c3cc(ccc31)-c1csc(n1)C[C@H](NC(=O)[C@H](C(C)C)N(C)C(=O)N1CCS(=O)(=O)CC1)C(=O)N1CCC[C@H](N1)C(=O)OCC(C)(C)C2 [Compound A357] | 10 to 100 nM | 100 to 1000 nM | 100 to 1000 nM | 1000 to 10000 nM | 100 to 1000 nM | 100 to 1000 nM | 100 to 1000 nM | 100 to 1000 nM | 100 to 1000 nM | 100 to 1000 nM | 100 to 1000 nM | 10 to 100 nM | 100 to 1000 nM | 10 to 100 nM |  | 
CCn1c(-c2cccnc2[C@H](C)OC)c2c3cc(ccc31)-c1cc(O)cc(c1)C[C@H](NC(=O)[C@H](C(C)C)N(C)C(=O)[C@H]1C[C@H]1O)C(=O)N1CCC[C@H](N1)C(=O)OCC(C)(C)C2 [Compound A554] | 1000 to 10000 nM | 10 to 100 nM | 10 to 100 nM | 100 to 1000 nM | 10 to 100 nM | 10 to 100 nM | 100 to 1000 nM | 100 to 1000 nM | 100 to 1000 nM | 10 to 100 nM | 10 to 100 nM | 10 to 100 nM | 10 to 100 nM | 100 to 1000 nM |  | 
CCn1c(-c2cccnc2[C@H](C)OC)c2c3cc(ccc31)-c1csc(n1)C[C@H](NC(=O)N1CCOCC1)C(=O)N1CCC[C@H](N1)C(=O)OCC(C)(C)C2 [Compound A270] | 1000 to 10000 nM | 100 to 1000 nM | 100 to 1000 nM | 100 to 1000 nM | 100 to 1000 nM | 100 to 1000 nM | 100 to 1000 nM | 100 to 1000 nM | 100 to 1000 nM | 100 to 1000 nM | 100 to 1000 nM | 100 to 1000 nM | 100 to 1000 nM | 100 to 1000 nM |  | 
